Laboratory results reported in patent US20150141411A1, “SUBSTITUTED 3,4-DIHYDRO-2H-PYRIDO[1,2-A]PYRAZINE-1,6-DIONE DERIVATIVES USEFUL FOR THE TREATMENT OF (INTER ALIA) ALZHEIMER'S DISEASE” (Janssen Pharmaceuticals, Inc., priority 2012, published 2015).

What was measured:
γ-secretase [1] = biological target: T1, γ-secretase (Homo sapiens, UniProt P49768); assay: Screening for γ-secretase-modulating activity: Aβ42 in supernatant of SKNBE2 cells carrying hAPP 695 wild type (Alphalisa); format: cell-based; conditions: SKNBE2 human neuroblastoma cells carrying hAPP 695 wild type, overnight incubation, Aβ42 in cell supernatant
T1 construct: endogenous in cells; host or cells: SKNBE2 human neuroblastoma cells (carrying hAPP 695 wild type as substrate)
How it was run: (§1)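 SKNBE2 neuroblastoma cells expressing wild-type hAPP 695 plated at 10^4 cells/well in Ultraculture with test compound, incubated overnight at 37° C. Aβ42 (C-terminal/N-terminal antibody pair) and Aβtotal (N-terminal/4G8 pair) in supernatant quantified by AlphaLISA. IC50 from 4-parameter fit of percent of compound-free control.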

Aβ38 = assay: In vivo efficacy: brain soluble Aβ38 in non-transgenic rodents (MSD electrochemiluminescence multiplex); set-up: species or system mouse; conditions: dose 30 mg/kg oral dosing, brain soluble fraction, animals sacrificed after 4 h; for response vs control in vivo at 30 mg/kg: Mus musculus, po, 4 h, untreated animals (Ctrl) set at 100, read-out: Aβ38 (% vs Ctrl)_Mean
Source text: To determine whether acute administration of an Aβ38 increasing agents would increase Aβ38 levels in vivo, non-transgenic rodents, e.g. mice or rats were used. Animals treated with the Aβ38 increasing agents were examined and compared to those untreated or treated with vehicle and brain levels of soluble Aβ42, Aβ40, Aβ38, and Aβ37 were quantitated by MSD electrochemiluminescence detection technology. Treatment periods varied from hours (h) to days and were adjusted based on the results of the Aβ38 increase once a time course of onset of effect could be established.
A typical protocol for measuring Aβ38 increase in vivo is shown but it is only one of many variations that could be used to optimize the levels of detectable Aβ. For example, Aβ38 increasing agents were formulated in 20% of Captisol® (a sulfobutyl ether of β-cyclodextrin) in water or 20% hydroxypropyl βcyclodextrin. The Aβ38 increasing agents were administered as a single oral dose or by any acceptable route of administration to overnight fasted animals. After 4 h, the animals were sacrificed and Aβ38 levels were analysed.
Blood was collected by decapitation and exsanguinations in EDTA-treated collection tubes. Blood was centrifuged at 1900 g for 10 minutes (min) at 4° C. and the plasma recovered and flash frozen for later analysis. The brain was removed from the cranium and hindbrain. The cerebellum was removed and the left and right hemisphere were separated. The left hemisphere was stored at −18° C. for quantitative analysis of test compound levels. The right hemisphere was rinsed with phosphate-buffered saline (PBS) buffer and immediately frozen on dry ice and stored at −80° C. until homogenization for biochemical assays.
Mouse brains from non-transgenic animals were resuspended in 8 volumes of 0.4% DEA (diethylamine)/50 mM NaCl containing protease inhibitors (Roche-11873580001 or 04693159001) per gram of tissue, e.g. for 0.158 g brain, add 1.264 ml of 0.4% DEA. All samples were homogenized in the FastPrep-24 system (MP Biomedicals) using lysing matrix D (MPBio #6913-100) at 6 m/s for 20 seconds. Homogenates were centrifuged at 20800×g for 5 min and supernatants collected. Supernatants were centrifuged at 221.300×g for 50 min. The resulting high speed supernatants were then transferred to fresh eppendorf tubes. Nine parts of supernatant were neutralized with 1 part 0.5 M Tris-HCl pH 6.8 and used to quantify Aβ.
To quantify the amount of Aβ42, Aβ40, Aβ38, and Aβ37 in the soluble fraction of the brain homogenates, simultaneous specific detection of Aβ42, Aβ40, Aβ38, and Aβ37 was performed using MSD's electro-chemiluminescence multiplex detection technology. In this assay purified monoclonal antibodies specific for Abeta37 (JRD/Aβ37/3), Abeta38 (J&JPRD/Aβ38/5), Abeta40 (JRF/cAβ40/28), and Abeta42 (JRF/cAβ42/26) were coated on MSD 4-plex plates. Briefly, the standards (a dilution of synthetic Aβ42, Aβ40, Aβ38, and Aβ37) were prepared in 1.5 ml Eppendorf tube in Ultraculture, with final concentrations ranging from 10000 to 0.3 pg/m. The samples and standards were co-incubated with Sulfo-tag labelled JRF/rAβ/2 antibody to the N-terminus of Aβ as detector antibody. 50 μl of conjugate/sample or conjugate/standards mixtures were then added to the antibody-coated plate. The plate was allowed to incubate overnight at 4° C. in order to allow formation of the antibody-amyloid complex. Following this incubation and subsequent wash steps the assay was finished by adding read buffer according to the manufacturer's instructions (MesoScale Discovery, Gaitherburg, Md.).
The SULFO-TAG emits light upon electrochemical stimulation initiated at the electrode. MSD Sector instrument SI6000 was used for signal read-out.
In this model a Aβ38 increase compared to untreated animals would be advantageous, in particular a Aβ38 increase with at least 10%, more in particular a Aβ38 increase with at least 20%. […]

γ-secretase [2] = biological target: T1, γ-secretase; assay: Screening for γ-secretase-modulating activity: Aβtotal in supernatant of SKNBE2 cells carrying hAPP 695 wild type (Alphalisa); format: cell-based; conditions: SKNBE2 human neuroblastoma cells carrying hAPP 695 wild type, overnight incubation, Aβtotal in cell supernatant
How it was run: as §1

| IC50 (γ-secretase [1]) [nM] | IC50 (γ-secretase [2]) [nM] | SMILES | response vs control in vivo at 30 mg/kg (Aβ38) [%] | Aβ38 (% vs Ctrl)_Mean (Aβ38; untreated animals (Ctrl) set at 100, 30 mg/kg) [% vs Ctrl] |
| --- | --- | --- | --- | --- |
| 60 | > 10000 | Cc1cn(-c2ccc3n(c2=O)C[C@@H](C)N(Cc2cc(N4CCOC(C(F)(F)F)C4)cc(C(F)(F)F)c2)C3=O)cn1 (mixture of isomers) [compound 153] | 108 | – |
| 70 | > 10000 | Cc1cn(-c2ccc3n(c2=O)CC(C)N(C(C)c2cc(C(F)(F)F)cc(C(F)(F)F)c2)C3=O)cn1.Cl (single isomer, unassigned) [compound 111] | 136 | – |
| 70 | > 10000 | Cc1cn(-c2ccc3n(c2=O)CC(C)N(C(C)c2cc(C(F)(F)F)cc(C(F)(F)F)c2)C3=O)cn1.Cl (single isomer, unassigned) [compound 112] | – | 153 |
| 110 | > 10000 | CCC(c1cc(OC)cc(C(F)(F)F)c1)N1C(=O)c2ccc(-n3cnc(C)c3)c(=O)n2C[C@H]1C (single isomer, unassigned) [compound 141] | 145 | – |
| 60 | > 10000 | CCOc1cc(C(C)N2C(=O)c3ccc(-n4cnc(C)c4)c(=O)n3C[C@H]2C)cc(C(F)(F)F)c1 (single isomer, unassigned) [compound 143] | 122 | – |
| 30 | 6760 | Cc1cn(-c2ccc3n(c2=O)CCN(C(C)c2c[nH]c4cc(F)c(Cl)cc24)C3=O)cn1 (single isomer, unassigned) [compound 183] | 141 | – |
| 20 | 5890 | Cc1cn(-c2ccc3n(c2=O)CCN(C(C)c2cn(C)c4cc(F)c(Cl)cc24)C3=O)cn1 (single isomer, unassigned) [compound 185] | 170 | – |
| 220 | – | Cc1cn(-c2ccc3n(c2=O)CC(C)N(C(C)c2cn(C)c4cc(F)c(Cl)cc24)C3=O)cn1 (single isomer, unassigned) [compound 189] | 116 | – |
| 10 | 1820 | CCn1cc(C(C)N2C(=O)c3ccc(-n4cnc(C)c4)c(=O)n3CC2C)c2cc(Cl)c(F)cc21 (single isomer, unassigned) [compound 192] | 147 | – |
| 10 | 1550 | Cc1cn(-c2ccc3n(c2=O)CC(C)N(C(C)c2cn(C(C)C)c4cc(F)c(Cl)cc24)C3=O)cn1 (single isomer, unassigned) [compound 194] | 197 | – |
| 20 | 3090 | Cc1cn(-c2ccc3n(c2=O)CC(C)N(C(C)c2c[nH]c4c(F)cc(Cl)cc24)C3=O)cn1 (single isomer, unassigned) [compound 219] | 119 | – |
| 370 | > 10000 | Cc1cn(-c2ccc3n(c2=O)CCN(Cc2ccc(Cl)c(C(F)(F)F)c2)C3=O)cn1 [compound 65] | – | – |
| 100 | > 10000 | Cc1cn(-c2ccc3n(c2=O)C[C@@H](C)N(Cc2cc(N4CCC(C)CC4)ccc2Cl)C3=O)cn1 [compound 80] | 133 | – |
| 110 | > 10000 | Cc1cn(-c2ccc3n(c2=O)C[C@@H](C)N(Cc2cc(N4CCCC4)ccc2Cl)C3=O)cn1 [compound 82] | 118 | – |
| 170 | > 10000 | Cc1cn(-c2ccc3n(c2=O)CCN(Cc2ccc(C)c(N4CCCCC4)c2)C3=O)cn1 [compound 99] | – | – |
| 40 | > 10000 | Cc1cn(-c2ccc3n(c2=O)C[C@@H](C)N(Cc2cc(CC4CC4)cc(C(F)(F)F)c2)C3=O)cn1 [compound 110] | 102 | – |
| 80 | > 10000 | Cc1cn(-c2ccc3n(c2=O)C[C@@H](C)N(Cc2cc(C4CC4)cc(C(F)(F)F)c2)C3=O)cn1 [compound 116] | 182 | – |
| 190 | > 10000 | C[C@@H]1Cn2c(ccc(-n3cnc(Cl)c3)c2=O)C(=O)N1Cc1cc(C(F)(F)F)cc(C(F)(F)F)c1 [compound 118] | 140 | – |
| 90 | > 10000 | Cc1cn(-c2ccc3n(c2=O)C[C@@H](C)N(Cc2cc(OC(C)C)nc(C(F)(F)F)c2)C3=O)cn1 [compound 128] | 162 | – |

Second part, the compound before the results:

| SMILES | IC50 (γ-secretase [1]) [nM] | IC50 (γ-secretase [2]) [nM] | response vs control in vivo at 30 mg/kg (Aβ38) [%] | Aβ38 (% vs Ctrl)_Mean (Aβ38; untreated animals (Ctrl) set at 100, 30 mg/kg) [% vs Ctrl] |
| --- | --- | --- | --- | --- |
| Cc1cn(-c2ccc3n(c2=O)CCN(C(C)c2cccc(Cl)c2Cl)C3=O)cn1 (single isomer, unassigned) [10a] | 140 | > 10000 | – | – |
| CCC1Cn2c(ccc(-n3cnc(C)c3)c2=O)C(=O)N1Cc1cc(C(F)(F)F)cc(C(F)(F)F)c1.Cl (stereo not shown) [compound 1] | 110 | > 10000 | – | – |
| Cc1cn(-c2ccc3n(c2=O)C[C@@H](C)N(Cc2ccc(Cl)c(Cl)c2)C3=O)cn1 [compound 2] | 170 | > 10000 | – | – |
| Cc1cn(-c2ccc3n(c2=O)CC(C)N(Cc2cc(C(F)(F)F)cc(C(F)(F)F)c2)C3=O)cn1 (stereo not shown) [compound 3] | 100 | > 10000 | 133 | – |
| Cc1cn(-c2ccc3n(c2=O)CCN(Cc2cccc(-c4ccccc4)c2)C3=O)cn1 [compound 5] | 80 | > 10000 | – | – |
| Cc1cn(-c2ccc3n(c2=O)CC(C)N(Cc2cc(OCC4CC4)cc(C(F)(F)F)c2)C3=O)cn1.Cl (stereo not shown) [compound 6] | 70 | > 10000 | 118 | – |
| CCc1cn(-c2ccc3n(c2=O)CC(C)N(Cc2cc(C(F)(F)F)cc(C(F)(F)F)c2)C3=O)cn1.Cl (stereo not shown) [compound 7] | 140 | > 10000 | – | – |
| Cc1cn(-c2ccc3n(c2=O)CCN(Cc2ccccc2C)C3=O)cn1 [compound 22] | 2570 | > 10000 | – | – |
| Cc1cn(-c2ccc3n(c2=O)C[C@@H](C)N(Cc2cccc(C(C)(C)C)c2)C3=O)cn1 [compound 23] | 140 | > 10000 | – | – |
| Cc1cn(-c2ccc3n(c2=O)C[C@@H](C)N(Cc2ccc(C(F)(F)F)c(C(F)(F)F)c2)C3=O)cn1 [compound 46] | 140 | > 10000 | – | – |
| Cc1cn(-c2ccc3n(c2=O)C[C@@H](C)N(CCc2cc(C(F)(F)F)cc(C(F)(F)F)c2)C3=O)cn1 [compound 50] | 40 | > 10000 | 160 | – |
| Cc1cc(CN2C(=O)c3ccc(-n4cnc(C)c4)c(=O)n3C[C@H]2C)cc(C(F)(F)F)c1 [compound 59] | 180 | > 10000 | – | – |
| Cc1cn(-c2ccc3n(c2=O)C[C@@H](C)N(Cc2ccc(Cl)c(C(F)(F)F)c2)C3=O)cn1 [compound 62] | 130 | > 10000 | – | – |
| Cc1cn(-c2ccc3n(c2=O)C[C@@H](C)N(Cc2cc(Cl)cc(C(F)(F)F)c2)C3=O)cn1 [compound 63] | 190 | > 10000 | – | – |
